Laboratory results from US11766470B2, “Manufacture, formulation and dosing of apraglutide” (VectivBio AG, priority 2020, dated 2023).
Square brackets hold non-standard residues; d marks the D form. Peptide text beside a SMILES is read from it. ξ: configuration not given here. Ile(3ξ) = CCC(C)[C@H](N)C(=O)O; Thr(3ξ) = CC(O)[C@H](N)C(=O)O; Nle = CCCC[C@H](N)C(=O)O

How the values were obtained:
clinical = conditions: human, in vivo; for half-life: t1/2, arithmetic mean ± SD; for CL/F: sc
Description: 23 healthy adult volunteers received 6 weekly subcutaneous doses of apraglutide (1, 5, or 10 mg) or placebo and were followed for a further 6 weeks after the last dose. Blood collections were controlled for diet, lifestyle, and diurnal effects. […] PK data underwent non-compartmental analysis and PD data were analyzed by ANCOVA.
As with citrulline, a statistical steady-state analysis per dose level was performed for apraglutide using Helmert's approach.

[1] = tested on: anti-apraglutide antibodies; assay: Anti-apraglutide antibodies ELISA in serum, Phase 2 metabolic balance trial (Example 6); format: in vivo, human
Description: (§1) Blood samples for analysis of the plasma concentration of apraglutide and plasma concentration of fasting L-citrulline, a marker of enterocyte mass, were collected at baseline, during first and second injection (pre-dose and at sequential timepoints), four days after first injection and at the end of treatment. Blood sampling for apraglutide pharmacokinetics was also performed after the fourth and last injection covering 96 hours. […] Blood samples for anti-apraglutide antibodies were collected at baseline, at the end of treatment and at the 4-6 weeks follow-up visit. All eight patients tested negative for anti-apraglutide antibodies at baseline.
A fully validated ELISA method was used for the detection of anti-apraglutide antibodies in serum, following a three-tiered assay approach. In the first tier, anti-apraglutide antibodies present in samples and controls bonded to apraglutide immobilized on a microtiter plate. The bound anti-apraglutide antibodies were then detected with protein A/G and protein L. A sample with a signal above the validated screening cut-point was considered potentially positive and was then tested in the second tier, the confirmatory assay. For this, samples were pre-treated with an excess of apraglutide prior to testing them in the assay described above. […] Titers were then determined by serial dilution of all confirmed positive samples.

[2] = Plasma concentration of apraglutide (LC-MS/MS) in Phase 2 metabolic balance trial (Example 6); format: in vivo, human; conditions: 5 mg SC once weekly, SBS patients
Description: as §1
Apraglutide and L-citrulline were quantified using a validated LC-MS-based method. For a apraglutide, the analytical method used solid-phase extraction purification of the intact apraglutide molecule and its internal standard. The compounds were identified and quantified using reversed-phase HPLC with MS/MS detection using an AB Sciex API 5000 quadrupole mass spectrometer. For samples below the limit of quantification of 5.00 ng/mL, compounds were identified and quantified using reversed-phase UHPLC with MS/MS detection using an AB Sciex API 5500 quadrupole mass spectrometer. For L-citrulline, the analytical method used protein precipitation extraction of L-citrulline and its internal standard. The compounds were identified and quantified using Hilic HPLC with MS/MS detection using an AB Sciex API 5000 quadrupole mass spectrometer.

[3] = tested on: patients with SBS-IF or SBS-II; assay: Safety assessments (adverse events) in Phase 2 metabolic balance trial (Example 6)
Description: Patients were treated with once weekly 5 mg apraglutide for four weeks. Apraglutide was provided as a freeze-dried powder for reconstitution in sterile water prior to injection, and treatments were administered as subcutaneous injections in the abdominal area. A 72-hour metabolic balance study was performed at baseline and at the end of the treatment period (starting one day after the fourth and last apraglutide injection). Each 72-hour metabolic balance study was performed during a five-day hospital admission. On the day of admission, patients were instructed to create a 24-hour drinking menu based on their habitual oral fluid intake. The drinking menu was to be followed during each balance study. On the second day of admission, just after the patients had urinated and emptied their stoma bags or defecated, the balance study was initiated. […] Daily PS and compliance to the predefined drinking menu was documented during admissions.
First, second and fourth apraglutide injections were performed at the hospital. Safety assessments included observation for injection site reactions, vital signs, blood samples, electrocardiogram (ECG), urinalysis and body weight. They were performed at baseline, during each injection of the trial drug, four days after first injection, at the end of treatment and 4-6 weeks after last dosing at the end of the trial, as shown in Table 20. Liver enzymes were measured prior to each drug administration.

[4] = Population PK/PD model of plasma apraglutide and plasma citrulline (healthy volunteers and SBS patients)
Description: Plasma citrulline was used as a pharmacodynamic (“PD”) marker to describe the effect of apraglutide. Similar to the pharmacokinetic (“PK”) model development, the PK/PD model was developed for the healthy individuals from studies GLY-101-2015 and TA799-002 only. For development of the PD model, the PD observations were fitted together with the PK observations using the final PK model with its structure, residual error-, covariates- and random effects-models. The starting model was a turnover model where plasma citrulline was constantly synthesized and degraded with the synthesis rate ksyn and the degradation rate kdeg. Plasma apraglutide stimulated citrulline synthesis via a sigmoid Emax relationship with the baseline citrulline level R0, the half-maximal effect at the concentration EC50, the maximal effect Emax, and a Hill coefficient gamma. It was assumed that citrulline turnover was in steady state such that citrulline synthesis was determined solely by citrulline baseline and degradation. The population PK/PD of plasma apraglutide was established with data from two studies in healthy volunteers and two studies with SBS patients that tested doses between 2.5 and 50 mg SC.
The population PK/PD model was used to predict plasma apraglutide exposure and plasma citrulline trough concentration-time profiles with and without inter-individual variability for individuals with body weights between 40 and 120 kg receiving weekly doses of 2.5, 5, or 10 mg SC. […] Apraglutide exposure for body weights between 40 and 120 kg and apraglutide SC doses of 2.5, 5, or 10 mg was compared to post-hoc exposure estimates of SBS patients. Bracketing at a body weight of 50 kg between doses of 2.5 and 5 mg was simulated.
Plasma citrulline was described by a turnover model and maximal PD effect model.

patients with SBS-IF = assay: Safety assessments (adverse events) in Phase 2 SBS-IF trial (Example 5)
Description: In Part A, patients were treated with 5 mg apraglutide or placebo once weekly for 4 weeks. After a washout period of 6-10 weeks, the alternate treatment was given. Part A was followed by a second washout period of 6-10 weeks before patients entered Part B. Part B was an open-label dosing regimen with 10 mg apraglutide given once weekly for 4 weeks. The additional open-label treatment period (Part B) was included to investigate the safety and tolerability of 10 mg dosing. The procedures during each treatment period were consistent. The trial drug was provided as a freeze-dried powder for reconstitution and was administered as subcutaneous injections in the abdominal area.
Safety assessments were performed for each treatment period and included observation for injection site reactions, vital signs, blood samples, electrocardiogram (ECG), dipstick urinalysis, body weight and liver enzymes. […] Additionally, liver enzymes were measured prior to each drug administration.

[5] = whole trial, incl. placebo periods

## CCCC[C@H](NC(=O)[C@H](CCC(=O)O)NC(=O)[C@H](CC(=O)O)NC(=O)[C@H](CO)NC(=O)[C@H](Cc1ccccc1)NC(=O)[C@H](CO)NC(=O)CNC(=O)[C@H](CC(=O)O)NC(=O)CNC(=O)[C@@H](N)Cc1c[nH]cn1)C(=O)N[C@H](Cc1ccccc1)C(=O)N[C@H](C(=O)N[C@H](C(=O)N[C@@H](CC(C)C)C(=O)N[C@@H](CC(=O)O)C(=O)N[C@@H](CC(C)C)C(=O)N[C@@H](CC(C)C)C(=O)N[C@@H](C)C(=O)N[C@@H](C)C(=O)N[C@@H](CCCNC(=N)N)C(=O)N[C@@H](CC(=O)O)C(=O)N[C@@H](Cc1ccccc1)C(=O)N[C@H](C(=O)N[C@@H](CC(N)=O)C(=O)N[C@@H](Cc1c[nH]c2ccccc12)C(=O)N[C@@H](CC(C)C)C(=O)N[C@H](C(=O)N[C@@H](CCC(N)=O)C(=O)N[C@H](C(=O)N[C@@H](CCCCN)C(=O)N[C@H](C(=O)N[C@H](C(=O)N[C@@H](CC(=O)O)C(N)=O)C(C)O)C(C)CC)C(C)O)C(C)CC)C(C)CC)C(C)CC)C(C)O (stereo partly drawn) [apraglutide, L-histidyl-glycyl-L-aspartyl-glycyl-L-seryl-L-phenylalanyl-L-seryl-L-aspartyl-L-glutamyl-L-norleucyl-D-phenylalanyl-L-threonyl-Lisoleucyl-L-leucyl-L-aspartyl-L-leucyl-L-leucyl-L-alanyl-L-alanyl-L-arginyl-L-aspartyl-L-phenylalanyl-L-isoleucyl-L-asparaginyl-Ltryptophanyl-L-leucyl-L-isoleucyl-L-glutaminyl-L-threonyl-L-lysyl-L-isoleucyl-L-threonyl-Laspartic acid amide] (H-HGDGSFSDE[Nle][dF][Thr(3ξ)][Ile(3ξ)]LDLLAARDF[Ile(3ξ)]NWL[Ile(3ξ)]Q[Thr(3ξ)]K[Ile(3ξ)][Thr(3ξ)]D-NH2)
clinical; 5 mg
  Vd/F: 55.4 L
  half-life: 3.04 days
  CL/F: 11.4 mL/min
clinical; 10 mg
  Vd/F: 105 L
  half-life: 3.18 days
  CL/F: 14.4 mL/min
clinical; 1 mg
  CL/F: 12.2 mL/min
[1]; during the trial, patient with SBS-IF
  Patients who developed anti-apraglutide antibodies: One
[1]; in vivo
  Effects of anti-apraglutide antibodies on PK profile, pharmacodynamic response, adverse events: No effects of anti-apraglutide antibodies were detected
[2]
  Mean clearance: 0.9 L/h
[2]; human, plasma, read-out: Maximum mean plasma concentration
  Cmax: 118 ng/mL
[2]; human, plasma, read-out: Mean elimination half-life (converted)
  half-life: 1620 min
[2]; human, plasma, read-out: Mean time to maximum concentration
  Tmax: 29.5 h
[3]; 5 mg
  Injection site reactions (transient), number of patients: One
  Patients with serious adverse events: two
  Serious adverse events assessed as related to the trial drug (abdominal pain): One
  Serious adverse events, number: three
[3]; 5 mg once weekly, four weeks, SBS-II and SBS-IF
  Safety and tolerability in words: safe and well tolerated
[3]; SBS-IF (N = 4), 5 mg
  Abdominal pain, number of patients: 2
  Any adverse event, number of patients: 4
  Flatulence, number of patients: 1
  Fluid retention, number of patients: 1
  Gastrointestinal stoma complication, number of patients: 2
  Gastrointestinal stoma output abnormal, number of patients: 1
  Gastrointestinal stoma output decreased, number of patients: 3
  Nausea, number of patients: 4
  Polyuria, number of patients: 1
  Stoma complication, number of patients: 3
  Weight increased, number of patients: 0
[3]; SBS-II (N = 4), 5 mg
  Abdominal pain, number of patients: 1
  Any adverse event, number of patients: 4
  Flatulence, number of patients: 3
  Fluid retention, number of patients: 1
  Gastrointestinal stoma complication, number of patients: 3
  Gastrointestinal stoma output abnormal, number of patients: 3
  Gastrointestinal stoma output decreased, number of patients: 3
  Nausea, number of patients: 1
  Polyuria, number of patients: 2
  Stoma complication, number of patients: 3
  Weight increased, number of patients: 2
[3]; Total (N = 8), 5 mg
  Abdominal pain, number of patients: 3
  Any adverse event, number of patients: 8
  Flatulence, number of patients: 4
  Fluid retention, number of patients: 2
  Gastrointestinal stoma complication, number of patients: 5
  Gastrointestinal stoma output abnormal, number of patients: 4
  Gastrointestinal stoma output decreased, number of patients: 6
  Nausea, number of patients: 5
  Polyuria, number of patients: 3
  Stoma complication, number of patients: 6
  Weight increased, number of patients: 2
[4]
  Body weight coefficient on clearance βC1/F/B,W: 1.8
  Dose at which citrulline saturation appears: 5 mg
  Dose coefficient on zero-order absorption duration βTk0,Dose: 0.249
  Half-life, population PK estimate: 1.3 days
  Maximal effect (Emax) on citrulline synthesis: 0.626
[4]; 70-kg individual, 5 mg SC
  Central volume of distribution, population PK estimate: 31.5 L
  Clearance, population PK estimate: 16.8 L/day
  Volume of distribution, population PK/PD model estimate: 31.3 L
[4]; plasma concentration, Emax turnover model
  Half-maximal effective apraglutide concentration (EC50) on plasma citrulline: 13.7 ng/mL
Patients with SBS-IF; 5 mg (N = 8)
  Any related adverse events, number of patients: 8
  Decreased appetite, number of patients: 1
  Edema, number of patients: 2
  Gastrointestinal stoma complication, number of patients: 5
  Gastrointestinal stoma output abnormal, number of patients: 4
  Gastrointestinal stoma output decreased, number of patients: 3
  Increased weight, number of patients: 1
  Polyuria, number of patients: 4
  Stoma complication, number of patients: 6
  Thirst decreased, number of patients: 3
Patients with SBS-IF; 5 mg dose group
  Injection site reactions, number of patients: one
Patients with SBS-IF; 10 mg (N = 8)
  Any related adverse events, number of patients: 8
  Decreased appetite, number of patients: 2
  Edema, number of patients: 2
  Gastrointestinal stoma complication, number of patients: 5
  Gastrointestinal stoma output abnormal, number of patients: 4
  Gastrointestinal stoma output decreased, number of patients: 6
  Increased weight, number of patients: 2
  Polyuria, number of patients: 6
  Stoma complication, number of patients: 6
  Thirst decreased, number of patients: 4
Patients with SBS-IF; 10 mg dose group
  Injection site reactions, number of patients: three
Patients with SBS-IF; 5 and 10 mg once weekly for four weeks
  Safety and tolerability in words: well tolerated and safe
Patients with SBS-IF; Total, all periods (N = 8)
  Any related adverse events, number of patients: 8
  Decreased appetite, number of patients: 3
  Edema, number of patients: 4
  Gastrointestinal stoma complication, number of patients: 5
  Gastrointestinal stoma output abnormal, number of patients: 5
  Gastrointestinal stoma output decreased, number of patients: 6
  Increased weight, number of patients: 3
  Polyuria, number of patients: 7
  Stoma complication, number of patients: 6
  Thirst decreased, number of patients: 5
Patients with SBS-IF; whole trial
  Deaths: no deaths
  Injection site reactions, number of patients: Three
  Serious adverse events related to the trial drug: None of these were considered related to the trial drug
Patients with SBS-IF; [5]
  Patients reporting serious adverse events: 5 patients
  Serious adverse events, number of cases: 8 cases
